One compound from patent publication US9051553B2, “Poly(ADP-ribose) polymerase genes” (AbbVie Deutschland GmbH & Co. KG, priority 1998, dated 2015) can be followed below.

Each structure is given as a SMILES string.

For this assay, the target named is T1, PARP3 (Homo sapiens, UniProt Q9Y6F1).
T1 construct: made in house; host or cells: insect cells (Sf9 or High-Five), baculovirus, pFASTBAC-1
T1 sequence (Q9Y6F1 1-533): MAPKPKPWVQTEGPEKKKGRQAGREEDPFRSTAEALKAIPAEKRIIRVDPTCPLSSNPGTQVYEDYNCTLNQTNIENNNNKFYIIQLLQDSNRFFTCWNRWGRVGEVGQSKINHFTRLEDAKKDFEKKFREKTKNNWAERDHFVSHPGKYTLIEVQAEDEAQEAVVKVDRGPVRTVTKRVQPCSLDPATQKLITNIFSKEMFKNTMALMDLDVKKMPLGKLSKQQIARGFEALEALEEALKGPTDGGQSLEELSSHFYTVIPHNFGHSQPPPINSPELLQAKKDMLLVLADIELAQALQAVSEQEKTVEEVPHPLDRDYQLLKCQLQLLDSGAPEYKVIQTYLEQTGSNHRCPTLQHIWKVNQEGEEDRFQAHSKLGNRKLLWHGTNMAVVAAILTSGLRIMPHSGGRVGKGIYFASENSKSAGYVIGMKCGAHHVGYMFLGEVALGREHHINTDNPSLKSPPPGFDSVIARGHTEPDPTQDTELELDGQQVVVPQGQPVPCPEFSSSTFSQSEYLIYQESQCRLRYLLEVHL
In words: PARP inhibition assay, selectivity PARP2 versus PARP3. In kind it is biochemical. Conditions: PARP2 compared with PARP3 as printed. As to the method: Assay Systems for Determining the Activity of PARP2 and PARP3 and the Inhibitory Action of Effectors on PARP1, PARP2 and PARP3
Various concentrations were used to construct a dose-effect plot to determine the Ki value of an inhibitor. Values are obtained in triplicate for a particular inhibitor concentration. Arithmetic means are determined using Microsoft© Excel. The IC50 is determined using the Microcal© Origin Software (Vers. 5.0) (“Sigmoidal Fit”). Conversion of the IC50 value is calculated in this way into Ki values took place by using “calibration inhibitors”.
The “calibration inhibitors” were also measured in each analysis. The Ki values of the “calibration inhibitors” were determined in the same assay system by analysis of the Dixon diagram in the manner familiar to the skilled worker.
Measurement was then possible after 30 minutes (up to 4 hours). The measurement took place in a “discovery HTRF microplate analyzer” (Canberra Packard Instruments). The Ki values were calculated as described for the ELISA.

With `O=c1[nH]nc(CNc2ccc(O)cc2)c2ccccc12` [4-(N-(4-hydroxyphe-nyl)aminomethyl)-(2H)-dihydrophthalazine-1-one], the “selectivity for PARP2 over PARP3” value is reported as “eight times”.
